Columns and labels:
[1] = test system: thymus gland; assay: effect on the thymus gland (thymus weight); format: in vivo, BDF1 mice; details: Table 4
Procedure: The effect of the compounds of the invention on the thymus gland is measured. BDF1 mice of 18-20 gms. weight are dosed at 150 mg/kg. with 6-chloro-2-phenylthiazolo[2,3-b]benzothiazolo-3(2H)-one mesoionic didehydro derivative for eight consecutive days. The mice are sacrificed on the ninth day, the thymus glands excised and weighed. The excised thymus glands averaged […]. as compared to […]. for the control group. […] The weight loss is also correlated to dose, and the results are as follows:
Using the same technique, the following compounds of the invention were tested: 6-chloro-2-(p-chlorophenyl)thiazolo[2,3-b]benzothiazol-3(2H)-one mesoionic didehydro derivative (A), 2-phenyl-5,6,7,8-tetrahydrothiazolo[2,3-b]benzothiazol-3(2H)-one mesoionic didehydro derivative (B), 2-phenylthiazolo[2,3-b]-benzothiazol-3(2H)-one mesoionic didehydro derivative (C),6-chloro-2-trifluoroacetylthiazolo[2,3-b]benzothiazol-3(2H)-one mesoionic didehydro derivative (D), 6-chloro-3-hydroxy-2-phenylthiazolo[2,3-b]benzothiazolium bromide (E), 7-ethoxy-3-hydroxy-2-phenylthiazolo[2,3-b]benzothiazolium bromide (F), 3-hydroxy-2-phenylthiazolo[2,3-b]benzothiazolium bromide (G), and 3-hydroxy-2-phenyl-5,6,7,8-tetrahydrothiazolo[2,3-b]benzothiazolium bromide (H).

[2] = test system: hemolytic anemia; assay: autoimmune hemolytic anemia model, serum immunoglobulins; format: in vivo, NZB mice; parameters: IgM, Baseline: unit not given beside the values; details: for IgG, % Change / IgM, % Change: 142 to 156 Days; for IgG, Baseline / IgM, Baseline: Baseline (142 Days), 200 mg/kg group
Excerpt: NZB/W F1 mice are divided into two groups according to sex. At the initiation of drug treatment, female mice are 78.2 days old with an average weight of 30 g., while male mice are 69.5 days old with an average weight of 40 g. IgG, IgM and antinuclear antibody determinations are made on pooled samples of serum obtained by capillary bleedings of the suborbital sinus at approximately monthly intervals. The compounds of the invention are suspended in a solution of physiological saline with 0.16% CMC. All dosing is twice weekly intraperitonially.
Another autoimmune disease model, hemolytic anemia, is used to further evaluate the compounds of the invention. Thus, NZB mice, having an average age of 142 days and with well advanced hemolytic anemia, are divided into treatment groups and are dosed biweekly over a period of two weeks (four doses total) with the following compounds in the same manner as previously described: 6-chloro-2-(p-chlorophenyl)thiazolo[2,3-b]benzothiazol-3(2H)-one mesoionic didehydro derivative (A), 2-phenyl-5,6,7,8-tetrahydrothiazolo[2,3-b]benzothiazol-3(2H)-one mesoionic didehydro derivative (B), 2-phenylthiazolo[2,3-b]benzothiazol-3(2H)-one mesoionic didehydro derivative (C) and 6-chloro-2-trifluoroacetylthiazolo[2,3-b]benzothiazol-3(2H)-one mesoionic didehydro derivative (D). The immunoglobulin values from serum samples are compared with the baseline (pretreatment) for each group and the results are summarized in Table 10: […]

[3] = test system: autoimmune disease (systemic lupus erythematosus); assay: autoimmune disease (systemic lupus erythematosus), immunoglobulin determinations, female NZB/W mice; format: in vivo, female NZB/W F1 mice; details: A 100 mg/kg, levamisole 25 mg/kg, i.p. twice weekly
Procedure: (§1) The effect of the compounds of the invention on the development and progress of autoimmune disease (systemic lupus erythematosus) in the New Zealand F1 hydrid mouse (NZB×NZW) is evaluated. NZB/W F1 mice are divided into two groups according to sex. […] IgG, IgM and antinuclear antibody determinations are made on pooled samples of serum obtained by capillary bleedings of the suborbital sinus at approximately monthly intervals. The compounds of the invention are suspended in a solution of physiological saline with 0.16% CMC. All dosing is twice weekly intraperitonially. […] Immunoglobulin values from serum samples are compared with the baseline (pretreatment) for each group.

[4] = test system: autoimmune disease (systemic lupus erythematosus); assay: autoimmune disease (systemic lupus erythematosus), immunoglobulin determinations, male NZB/W mice; format: in vivo, male NZB/W F1 mice; details: A 100 mg/kg, levamisole 25 mg/kg, i.p. twice weekly
Procedure: as §1

[5] = 1st Reading (156 Days), 200 mg/kg, four doses over two weeks
[6] = 200 mg/kg, four doses over two weeks

`O=C(c1sc2sc3ccc(Cl)cc3[n+]2c1[O-])C(F)(F)F` [D] was tested, and the “% Change in weight (thymus gland)” value ([1]; 200 mg/kg) was -28%, the “Avg. weight of thymus gland” value ([1]; 200 mg/kg) was 28.4 mg and the “IgG, 1st Reading” value [2, 5] was 770. The “IgM, 1st Reading” value [2, 5] was 190, the “IgG, % Change” value [2, 6] was “+8%” and the “IgM, % Change” value [2, 6] was “+4%”. The “IgG, Baseline” value [2] was 710 and the “IgM, Baseline” value [2] was 182.
In the case of `Oc1c(-c2ccccc2)sc2sc3ccc(Cl)cc3[n+]12` [E], the “% Change in weight (thymus gland)” value ([1]; 75 mg/kg) is reported as -56% and the “Avg. weight of thymus gland” value ([1]; 75 mg/kg) is reported as 17.5 mg.
For `[O-]c1c(-c2ccccc2)sc2sc3c([n+]12)CCCC3` [Example 11, 2-Phenyl-5,6,7,8-tetrahydrothiazolo[2,3-b]-benzothiazol-3(2H)-one mesoionic dedihydro derivative], the “% Change in weight (thymus gland)” value ([1]; 200 mg/kg) was -58%, the “Avg. weight of thymus gland” value ([1]; 200 mg/kg) was 16.8 mg and the “ANA (antinuclear antibody), 1st Reading” value [2, 5] was “neg”. The “IgG, 1st Reading” value [2, 5] was 356, the “IgM, 1st Reading” value [2, 5] was 134 and the “IgG, % Change” value [2, 6] was -50%. For the same compound, the “IgM, % Change” value [2, 6] was -31%, the “IgG, Baseline” value [2] was 710 and the “IgM, Baseline” value [2] was 194.
With `CCOc1ccc2c(c1)sc1sc(-c3ccccc3)c(O)[n+]12` [F] the “% Change in weight (thymus gland)” value ([1]; 150 mg/kg) was -16% and the “Avg. weight of thymus gland” value ([1]; 150 mg/kg) was 33.3 mg.
`Oc1c(-c2ccccc2)sc2sc3ccccc3[n+]12` [G] was tested, and the “% Change in weight (thymus gland)” value ([1]; 75 mg/kg) was -29% and the “Avg. weight of thymus gland” value ([1]; 75 mg/kg) was 28.0 mg.
`Oc1c(-c2ccccc2)sc2sc3c([n+]12)CCCC3` [H] was tested, and the “% Change in weight (thymus gland)” value ([1]; 75 mg/kg) was “+2%” and the “Avg. weight of thymus gland” value ([1]; 75 mg/kg) was 40.5 mg.
For `c1ccc([C@H]2CN3CCSC3=N2)cc1` [Levamisole, L-(-)-2,3,5,6-tetrahydro-6-phenylimidazo[2,1-b]thiazole, reference compound], the IgG level ([3]; 47 Days) was 404 mg./100 ml, the IgM level ([3]; 47 Days) was 49 mg./100 ml and the IgG level ([3]; 76 Days) was 490 mg./100 ml. For the same compound, the IgM level ([3]; 76 Days) was 83 mg./100 ml, the IgG level ([3]; 111 Days) was 980 mg./100 ml and the IgM level ([3]; 111 Days) was 136 mg./100 ml. The IgG level ([3]; 154 Days) was 900 mg./100 ml, the IgM level ([3]; 154 Days) was 154 mg./100 ml and the “IgG Total Change From Baseline” value [3] was “+440 mg./100 ml”. For the same compound, the “IgM Total Change From Baseline” value [3] was “+90 mg./100 ml”, the IgG level ([3]; Pretreatment) was 460 mg./100 ml and the IgM level ([3]; Pretreatment) was 64 mg./100 ml. It also gave an IgG level ([4]; 47 Days) of 560 mg./100 ml, an IgM level ([4]; 47 Days) of 68 mg./100 ml and an IgG level ([4]; 76 Days) of 710 mg./100 ml. It also gave an IgM level ([4]; 76 Days) of 140 mg./100 ml, an IgG level ([4]; 111 Days) of 710 mg./100 ml and an IgM level ([4]; 111 Days) of 128 mg./100 ml. The IgG level ([4]; 154 Days) was 910 mg./100 ml, the IgM level ([4]; 154 Days) was 142 mg./100 ml and the “IgG Total Change From Baseline” value [4] was “+460 mg./100 ml”. The “IgM Total Change From Baseline” value [4] was “+98.5 mg./100 ml”, the IgG level ([4]; Pretreatment) was 450 mg./100 ml and the IgM level ([4]; Pretreatment) was 43.5 mg./100 ml.

— patent US4275065A, “Modulating the immune response with 2-substituted-3-hydroxythiazolo[2,3-b]b e” (American Home Products Corporation, priority 1980, dated 1981)
